The target of this assay is C-Raf FL (full length CRAF with Y340E and Y341E activating mutations, co-expressed with h14-3-3 zeta) (Homo sapiens (Human), UniProt P04049, Y340E/Y341E). In words: In vitro Raf activity determination, AlphaScreen p-MEK readout, c-Raf (C-Raf FL). The class given is biochemical. Conditions: c-Raf approximately 4 nM, ATP 1 μM, pre-incubation 60 minutes, reaction 1 hour. An outline of the steps: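 Full-length C-Raf (~4 nM) pre-incubated 60 min at room temperature with compound and kinase-dead biotinylated MEK1 (~10 nM) in Tris pH 7.5, 15 mM MgCl2, BSA, DTT. Reaction started with 1 μM ATP and run 1 h at room temperature. Phospho-MEK detected by AlphaScreen with anti-p-MEK antibody.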
A general note: Bead proximity is the source of the signal in Alpha formats.

The structures appear in SMILES notation.

C-Raf FL (full length CRAF with Y340E and Y341E activating mutations, co-expressed with h14-3-3 zeta), sequence (P04049 whole entry Y340E/Y341E): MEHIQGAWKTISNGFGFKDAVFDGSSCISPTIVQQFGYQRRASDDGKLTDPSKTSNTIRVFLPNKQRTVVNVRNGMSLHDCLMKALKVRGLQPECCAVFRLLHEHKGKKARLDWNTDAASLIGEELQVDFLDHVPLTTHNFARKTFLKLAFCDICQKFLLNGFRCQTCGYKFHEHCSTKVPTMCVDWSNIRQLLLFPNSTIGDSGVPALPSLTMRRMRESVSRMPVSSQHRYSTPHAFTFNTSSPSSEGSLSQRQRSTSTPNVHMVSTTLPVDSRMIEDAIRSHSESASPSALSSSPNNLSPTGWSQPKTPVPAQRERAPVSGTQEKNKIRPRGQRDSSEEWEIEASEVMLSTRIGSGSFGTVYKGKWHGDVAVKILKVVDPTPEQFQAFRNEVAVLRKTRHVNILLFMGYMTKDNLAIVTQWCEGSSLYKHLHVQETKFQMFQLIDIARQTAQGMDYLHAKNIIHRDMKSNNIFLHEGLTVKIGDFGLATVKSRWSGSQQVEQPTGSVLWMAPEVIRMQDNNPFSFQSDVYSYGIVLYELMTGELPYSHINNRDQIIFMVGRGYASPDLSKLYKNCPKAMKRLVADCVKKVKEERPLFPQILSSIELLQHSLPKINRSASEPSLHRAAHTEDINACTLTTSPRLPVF
C-Raf FL (full length CRAF with Y340E and Y341E activating mutations, co-expressed with h14-3-3 zeta), sequence (P63104 whole entry partner): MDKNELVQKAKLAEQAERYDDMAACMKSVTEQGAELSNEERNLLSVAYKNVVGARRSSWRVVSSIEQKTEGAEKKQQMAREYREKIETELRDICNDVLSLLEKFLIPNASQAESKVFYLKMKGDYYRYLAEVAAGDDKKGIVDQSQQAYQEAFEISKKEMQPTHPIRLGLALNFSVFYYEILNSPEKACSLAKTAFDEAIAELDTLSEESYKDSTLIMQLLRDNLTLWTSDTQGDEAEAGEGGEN

Take `Cc1ccc(NC(=O)c2ccnc(C(F)(F)F)c2)cc1-c1cc(F)c2c(c1)N1CCOC[C@@H]1[C@@](F)(CO)C2` [Example 424, N-(3-((4aR,5R)-5,7-difluoro-5-(hydroxymethyl)-1,2,4,4a,5,6-hexahydro-[1,4]oxazino[4,3-a]quinolin-9-yl)-4-methylphenyl)-2-(trifluoromethyl)isonicotinamide]: the IC50 (in general, the concentration that inhibits the measured activity by half) worked out at 200 pM.

Molecule `Cc1ccc(NC(=O)c2ccnc(C(F)(F)F)c2)cc1-c1cnc2c(c1)N1CCOC[C@H]1[C@@H](C(C)(C)O)C2` [Example 451, N-(3-((4aR,5S)-5-(2-hydroxypropan-2-yl)-1,2,4,4a,5,6-hexahydro-[1,4]oxazino[4,3-a][1,5]naphthyridin-9-yl)-4-methylphenyl)-2-(trifluoromethyl) isonicotinamide] gave an IC50 of 600 pM.

The molecule `Cc1ncc(NC(=O)c2cccc(C(F)(F)F)c2)cc1-c1cc(F)c2c(c1)N1CCOC[C@@H]1[C@@](F)(CO)C2` [Example 426, N-(5-((4aR,5R)-5,7-difluoro-5-(hydroxymethyl)-1,2,4,4a,5,6-hexahydro-[1,4]oxazino[4,3-a]quinolin-9-yl)-6-methylpyridin-3-yl)-3-(trifluoromethyl)benzamide] yielded an IC50 of 400 pM.

In turn, `Cc1ccc(NC(=O)c2ccnc(C(C)(F)F)c2)cc1-c1cc2c(nn1)OCC1COCCN21` (racemic) [Example 135, rac-2-(1,1-Difluoroethyl)-N-(4-methyl-3-(6a,7,9,10-tetrahydro-6H-[1,4]oxazino[4,3-d]pyridazino[3,4-b][1,4]oxazin-2-yl)phenyl)isonicotinamide] registered an IC50 of 19 pM.

Regarding `CCN1C(=O)[C@H]2[C@@H]3COC[C@@H]3[C@H]2c2cc(-c3cc(NC(=O)c4cccc(C(F)(F)F)c4)cnc3C)cnc21` [Example 275, N-(5-((6aR, 6bR, 9aR, 9bR)-5-ethyl-6-oxo-5,6,6a,6b,7,9,9a,9b-octahydrofuro[3′,4′: 3,4]cyclobuta[1,2-c][1,8]naphthyridin-2-yl)-6-methylpyridin-3-yl)-3-(trifluoromethyl) benzamide], half-maximal inhibition (IC50) required 800 pM.

The molecule `CNC[C@@H]1Cc2ncc(-c3cc(NC(=O)c4ccnc(C(F)(F)F)c4)ccc3C)cc2N2CCOC[C@@H]12` [Example 530, N-(4-methyl-3-((4aR,5S)-5-((methylamino)meth-yl)-1,2,4,4a,5,6-hexahydro-[1,4]oxazino[4,3-a][1,5]naphthyridin-9-yl)phenyl)-2-(trifluoromethyl)iso-nicotinamide] came in with an IC50 of 400 pM.

Regarding `Cc1ccc(NC(=O)c2ccnc(C(F)(F)F)c2)cc1-c1cnc2c(c1)C1(C)CCOCCC1C(=O)N2CCO` (single isomer, unassigned) [Example 356, N-(3-((5a,11b-trans)-7-(2-hydroxyethyl)-11b-methyl-6-oxo-1,2,4,5,5a,6,7,11b-octahydrooxepino[4,5-c][1,8]naphthyridin-10-yl)-4-methylphenyl)-2-(trifluoromethyl)isonicotinamide], the IC50 was determined as 100 pM.

Regarding `Cc1ccc(NC(=O)c2ccnc(C(F)(F)F)c2)cc1-c1cc2c(cc1F)C[C@@](F)(CO)[C@@H]1COCCN21` [Example 485, N-(3-((4aS,5S)-5,8-difluoro-5-(hydroxymethyl)-1,2,4,4a,5,6-hexahydro-[1,4]oxazino[4,3-a]quinolin-9-yl)-4-methylphenyl)-2-(trifluoromethyl) isonicotinamide], the IC50 turned out to be 300 pM.

On to `Cc1ccc(NC(=O)c2ccnc(C(F)(F)F)c2)cc1-c1cnc2c(c1)N1CCOC[C@H]1[C@](C)(C#N)C2` [Example 377, N-(3-((4aR,5R)-5-cyano-5-methyl-1,2,4,4a,5,6-hexahydro-[1,4]oxazino[4,3-a][1,5]naphthyridin-9-yl)-4-methylphenyl)-2-(trifluoromethyl)isonicotinamide], for which 900 pM corresponded to half-maximal inhibition (IC50).

`CCN1C(=O)C2COCCC2(C)c2cc(-c3cc(NC(=O)c4ccnc(C(F)(F)F)c4F)ccc3C)cnc21` (stereo not drawn) [Example 348, N-(3-((4a,10b- trans)-6-ethyl-10b-methyl-5-oxo-2,4,4a,5,6,10b-hexahydro-1H-pyrano[3,4-c][1,8]naphthyridin-9-yl)-4-methylphenyl)-3-fluoro-2-(trifluoromethyl) isonicotinamide] displayed an IC50 of 700 pM.

Turning to `CCN1C(=O)N2COCCC2(C)c2cc(-c3cc(NC(=O)c4ccnc(C(F)(F)F)c4)ccc3C)ccc21` (stereo not drawn) [Example 242, N-(3-(7-ethyl-11b-methyl-6-oxo-1,2,4,6,7,11b-hexahydro-[1,3]oxazino[3,4-c]quinazolin-10-yl)-4-methylphenyl)-2-(trifluoromethyl) isonicotinamide], it took 300 pM to reach half-maximal inhibition (IC50).

Molecule `Cc1ncc(NC(=O)c2cccc(C(F)(F)F)c2)cc1-c1ccc2c(c1)N1CCOC[C@H]1[C@](F)(CN)C2` [Example 526, N-(5-((4aS,5R)-5-(aminomethyl)-5-fluoro-1,2,4,4a,5,6-hexahydro-[1,4]oxazino[4,3-a]quinolin-9-yl)-6-methylpyridin-3-yl)-3-(trifluoromethyl)benzamide] registered an IC50 of 2600 pM.

For the molecule `Cc1ccc(NC(=O)c2ccnc(C(C)(F)F)c2)cc1-c1cnc2c(c1)N1CCOC[C@H]1C[C@H]2OCCO` [Example 513, 2-(1,1-difluoroethyl)-N-(3-((4aR,6R)-6-(2-hydroxyethoxy)-1,2,4,4a,5,6-hexahydro-[1,4]oxazino[4,3-a][1,5]naphthyridin-9-yl)-4-methylphenyl)iso-nicotinamide], the IC50 was 100 pM.

Molecule `CCN1C(=O)[C@H]2COCC[C@@H]2c2cc(-c3cc(NC(=O)c4ccnc(C(C)(C)F)c4)cnc3C)cnc21` [Example 310, N-(5-((4aR, 10bS)-6-ethyl-5-oxo-1,4,4a,5,6,10b-hexahydro-2H-pyrano[3,4-c][1,8]naphthyridin-9-yl)-6-methylpyridin-3-yl)-2-(2-fluoropropan-2-yl)isonicotinamide] registered an IC50 of 100 pM.

Molecule `CCN1C(=O)C2(F)COCC[C@@H]2c2cc(-c3cc(NC(=O)c4cccc(C(F)(F)F)c4)cnc3C)cnc21` (stereo partly drawn) [Example 340, N-(5-((10bR)-6-ethyl-4a-fluoro-5-oxo-2,4,4a,5,6,10b-hexahydro-1H-pyrano[3,4-c][1,8]naphthyridin-9-yl)-6-methylpyridin-3-yl)-3-(trifluoromethyl) benzamide] showed an IC50 of 1300 pM.

For the molecule `CCN1C(=O)[C@H]2COCC[C@]2(C)c2cc(-c3cc(NC(=O)c4ccnc(C(C)(F)F)c4)ccc3C)cnc21` (stereo in doubt) [Example 344, 2-(1,1-difluoroethyl)-N-(3-((4a,10b-trans)6-ethyl-10b-methyl-5-oxo-2,4,4a,5,6,10b-hexahydro-1H-pyrano[3,4-c][1,8]naphthyridin-9-yl)-4-methylphenyl)isonicotinamide], the IC50 was determined as 100 pM.

Molecule `Cc1ccc(NC(=O)c2ccnc(C(F)(F)F)c2)cc1-c1cnc2c(c1)N1CCOCC1CC2=O` (racemic) [Example 110, rac-N-(4-methyl-3-(6-oxo-1,2,4,4a,5,6-hexahydro-[1,4]oxazino[4,3-a][1,5]naphthyridin-n-9-yl)phenyl)-2-(trifluoromethyl)isonicotinamide] came in with an IC50 of 2 pM.

Turning to `Cc1ncc(NC(=O)c2cccc(C(F)(F)F)c2)cc1-c1cnc2c(c1)N1CCOC[C@H]1[C@H](C(C)(C)O)C2` [Example 458, N-(5-((4aR,5R)-5-(2-hydroxypropan-2-yl)-1,2,4,4a,5,6-hexahydro-[1,4]oxazino[4,3-a][1,5]naphthyridin-9-yl)-6-methylpyridin-3-yl)-3-(trifluoro-methyl)benzamide], half-maximal inhibition (IC50) was put at 700 pM.

Source of the values: patent US10377770B2 (Novartis AG, priority 2015, dated 2019).
